According to US20220401385A1, “Combination Therapy Based on PD-1 Signaling Inhibitors” (Kyoto University, priority 2019, published 2022):

Assays:
CD44 low CD8+ T cells [1] = assay: Cell proliferation by 3H uptake in vitro, CD44 low cells; assay type: cell-based, mice; details: SPD 0.2 μM, 24 hours
Procedure: FIG. 4 CD8^+ T cells were isolated from the spleen of mice without tumor inoculation, and further isolated into CD44^+ (CD44 high) and CD44^− (CD44 low) cell populations. a) CD44 low cells were simulated with CD3/CD28 antibody beads and SPD (0.2 μM). After 30 minutes, 1 hour, 2 hours and 72 hours, OCR was measured with a Seahorse analyzer. b) At the same time, total ATP production and glycolytic pathway-derived or mitochondrial activity-derived ATP production were calculated at 30-minute, 1-hour and 2-hour. c) CD44 low cells (2×10^5 cells) were stimulated with CD3/CD28 antibody beads and SPD (0.2 μM). After 24 hours, cell proliferation was examined by means of 3H uptake. d) Spare respiratory capacity (SRC) was calculated from the OCR measurement after 72 hours in a), and results with and without SPD were compared. e) CD44 low cells were stimulated with CD3/CD28 antibody beads and SPD (0.2 μM). After 24 hours, frequencies between apoptotic and viable cells were calculated by PI and Annexin staining. f-j) CD44 high cells were analyzed under the same conditions and by the same methods as described in a-e) above. As regards statistical analysis, t-test was used for comparison of two groups, and ANOVA was used for comparison of three or more groups. * p<0.05, ** p<0.01, *** p<0.001, **** p<0.0001.

AMPK and mTOR signaling = assay: Western blotting of AMPK and mTOR signaling, CD44 low cells; assay type: cell-based, mice; details: presence or absence of SPD 0.2 μM, 1 hour and 2 hours
Procedure: FIG. 5 CD8^+ T cells were isolated from the spleen of mice without tumor inoculation, and further isolated into CD44^+ (CD44 high) and CD44^− (CD44 low) cell populations. a) CD44 low cells were simulated with CD3/CD28 antibody beads and SPD (0.2 μM). […] Protein expression levels after 1 hour and 2 hours were confirmed by western blotting with the respective indicated antibodies. As regards statistical analysis, t-test was used for comparison of two groups. * p<0.05, ** p<0.01, *** p<0.001, **** p<0.0001.
CD8^+ T cells were isolated using mouse CD8 Microbeads (Miltenyi Biotec or Mojo). After washing with PBS twice, 2×10^6 cells were solubilized in a lysis buffer containing 30 mM Tris-HCl (pH. 7.4), 150 mM NaCl, 10% glycerol, 0.1% SDS, 1% Triton-X-100, 0.05% Na-Doc, 5 mM EDTA (pH. 8.0), protease inhibitor mixture (Roche Molecular Biochemicals) and phosphatase inhibitors (Nacalai Tesque). After measurement of protein concentrations by DC protein assay (Bio-Rad), 4 μg of proteins was mounted on 4 to 20% gradient Mini-PROTEAN TGX Gels (Bio-Rad) and electroblotted onto nitrocellulose membranes, which were then incubated in a blocking buffer of TBS containing 1% BSA. Primary antibody incubations were carried out overnight at 4° C. in blocking buffer. After washing, secondary antibody incubations were carried out at room temperature for 40 min in blocking buffer. […]

CD44 low CD8+ T cells [2] = assay: Mitochondria-related proteomics in vitro, CD44 low cells; assay type: cell-based, mice; details: late phase, 44 hours after SPD stimulation
Procedure: FIG. 6 CD8^+ T cells were isolated from the spleen of mice without tumor inoculation, and further isolated into CD44^+ (CD44 high) and CD44^− (CD44 low) cell populations. CD44 low cells and CD44 high cells were simulated with CD3/CD28 antibody beads and SPD (0.2 μM). After 1 hour and 44 hours, cells were collected and proteomics analyses regarding mitochondria-related proteins were conducted. A heat map showing the categories of respective signaling pathways, associated protein names and comparison of their expression levels is given.
T cells were prepared by two methods. For in vivo analysis, 13 days after tumor inoculation and 3 days after the start of therapy, draining lymph nodes from 5 mice were pooled, followed by isolation of CD8^+ T cells. From the isolated CD8^+ T cells, three samples each consisting of 1×10^6 cells were prepared and used for analysis. For in vitro experiments, 2×10^5 CD8^+ T cells stimulated with 0.2 μM spermidine for 1 hour were used. For mass spectrometry analysis, a Tandem Mass Tag (TMT) system or a Data Independent Acquisition (DIA) system was used. In the analysis of in vivo CD8^+ T cells (FIG. 3), those proteins which increased by 1.5-fold or more or decreased by 0.6-fold or less were extracted.

CD8+ T cells = assay: Tumor-infiltrating CD8+ T cells in aged MC38 mice; assay type: in vivo; details: 56-week old mice; combination with SPD; 13 days after tumor inoculation
Procedure: FIG. 7 MC38 cells (5×10^5) were intradermally inoculated into 56-week old mice, which were treated along with the treatment schedule described in FIG. 1. PD-L1 antibody (2 mg/kg) and SPD (2 mg/kg) were used. a) Tumor growth curve and survival curve are shown. b) The frequency of CD8^+ T cells among lymphocytes infiltrating into tumor (in CD45^+ gate) and the absolute number of CD8^+ T cells per mg tumor 13 days after tumor inoculation are shown. c) CD8^+ T cells were isolated from spleen cells on the same schedule as b) and cultured for 20 hours under the stimulation with CD3/CD28. Cell proliferation was examined by means of ^3H uptake. d) CD8^+ T cells were isolated from draining lymph nodes on the same schedule as b) and glycolytic pathway-derived or mitochondrial metabolism-derived ATP production was calculated by Seahorse. e) Spare respiratory capacity (SRC) was also calculated in the experiment (d).
It is known from mouse model experiments that the effect of PD-1 inhibitory antibody therapy decreases in aged mice due to their decreased immunity. […] CD8^+ T cells were isolated from draining lymph nodes 13 days after tumor inoculation and glycolytic pathway-derived or mitochondrial metabolism-derived ATP production was calculated by Seahorse. Spare respiratory capacity (SRC) was also calculated. […]

## NCCCCNCCCN [SPD, spermidine]
CD44 low CD8+ T cells [1]
  cell proliferation: increased
AMPK and mTOR signaling
  AMPK and mTOR signaling: did not cause much difference
CD44 low CD8+ T cells [2]
  expression levels of mitochondrial proteins and proteins of mitochondria-related metabolism: high
CD8+ T cells
  number of CD8+ T cells in lymphocytes infiltrating into tumor: increase
